Laboratory results: publication PMC10126264, “Synergistic effect and antibiofilm activity of the antimicrobial peptide K11 with conventional antibiotics against multidrug-resistant and extensively drug-resistant Klebsiella pneumoniae” (Frontiers in Cellular and Infection Microbiology, 2023)
≈ marks a conversion by molar mass, not a printed value. Read-outs that look alike come from different tables or passages of the source. Residues, ends and D or L forms follow the SMILES beside them.

How the values were obtained:
[1] = ref Jin-Jiang et al., 2012; cited from earlier work
Description: K11 is a synthetic peptide derived from natural AMPs (cecropin A1, melittin, and maganin 2), composed of 20 amino acids ([…]-NH2). […] Moreover, K11 has also been successfully used in vivo as a topic hydrogel solution against Acinetobacter baumannii-infected wounds ([Rishi et al., 2018]).

[2] = murine excision model; ref Rishi et al., 2018; cited from earlier work
Description: The pH and thermal stability of AMPs are essential for their preparation, processing, and storage ([Zong et al., 2016]). At the same time, the stability of AMPs in serum and under physiological salt conditions is also crucial when administrating AMPs in vivo ([Rodríguez et al., 2021]).

[3] = test system: MDR/XDR K. pneumoniae clinical isolates; assay: microbe, parasite or virus in culture; conditions: for MIC: broth microdilution in CAMHB, 20-24 h at 37°C; for MBC: wells with no visible growth plated on MHA, 37°C, kills at least 99.9% of inoculum
Procedure: (§1) The ability of K11 to inhibit bacterial growth was determined by the broth microdilution method ([Clinical and Laboratory Standards Institute, 2018]). Briefly, a series of 2-fold dilutions of K11 were prepared from 1,024 to 2 µg/mL in cation-adjusted Mueller-Hinton broth (CAMHB), Then 50 µL of each peptide dilution was added to each well of polystyrene 96-well U-bottom microplates. The log-phase cultures were adjusted to 0.5 McFarland standard and diluted 1:100 in CAMHB to provide the density of 10^6 CFU/mL. Consequently, 50 µL of diluted bacterial suspension was added to wells containing 50 µL of peptide solution, followed by incubation for 20-24 h at 37°C. […] To evaluate MBC, a volume of 10 μL was taken from each well with no visible growth, inoculated on Mueller-Hinton agar (MHA) plates, and incubated at 37°C. The MBC was defined as the lowest concentration of antimicrobials that killed at least 99.9% of the initial inoculums ([Clinical and Laboratory Standards Institute, 1999]).

[4] = test system: K. pneumoniae reference strains; assay: MIC determination, broth microdilution; assay type: cell-based, Klebsiella pneumoniae; conditions: K. pneumoniae reference strains (ATCC BAA-1706, ATCC 70063)
K. pneumoniae ATCC 70063 [5] = test system: K. pneumoniae ATCC 70063
[6] = test system: K. pneumoniae ATCC BAA-1706
Procedure: as §1

[7] = test system: K. pneumoniae ATCC BAA-1706; remark: listed apart in the source
Procedure: The effects of various cations and serum on the antimicrobial activity of K11 were investigated against K. pneumoniae ATCC 70063 and K. pneumoniae ATCC BAA-1706 by the MIC assay, as described above. For salt stability, 2 mg/mL of K11 was dissolved in solutions containing different salts at their physiological concentrations; NaCl (100, 150, and 200 mM), MgCl2 (0.5, 1 and 2 mM), and FeCl3 (1, 4, and 8 mM), then incubated for 1 h at 37°C. Subsequently, serially 2-fold diluted K11 solutions were prepared in CAMHB, and aliquots of each peptide solution were added to a 96-well plate. An equal volume of bacterial suspension was added, and the mixtures were incubated at 37°C for 20-24 h ([Ko et al., 2019]). […] The antimicrobial activity was determined by measuring the MICs.

K. pneumoniae ATCC 70063 [8] = test system: K. pneumoniae ATCC 70063; remark: listed apart in the source
Procedure: (§2) The effects of various cations and serum on the antimicrobial activity of K11 were investigated against K. pneumoniae ATCC 70063 and K. pneumoniae ATCC BAA-1706 by the MIC assay, as described above. For salt stability, 2 mg/mL of K11 was dissolved in solutions containing different salts at their physiological concentrations; NaCl (100, 150, and 200 mM), MgCl2 (0.5, 1 and 2 mM), and FeCl3 (1, 4, and 8 mM), then incubated for 1 h at 37°C. Subsequently, serially 2-fold diluted K11 solutions were prepared in CAMHB, and aliquots of each peptide solution were added to a 96-well plate. An equal volume of bacterial suspension was added, and the mixtures were incubated at 37°C for 20-24 h ([Ko et al., 2019]). For serum stability, 2 mg/mL of K11 was prepared in solution with 25% and 50% FBS and incubated for 1 h at 37°C, then heat […] for 30 min at 60°C. A series of 2-fold dilutions of K11 were performed in CAMHB and transferred to a 96-well plate. The diluted bacterial suspension was added to the well, and mixtures were incubated for 20-24 h at 37°C ([Oliva et al., 2018]). The antimicrobial activity was determined by measuring the MICs.

[9] = test system: K. pneumoniae ATCC BAA-1706; remark: listed apart in the source
Procedure: as §2

[10] = MDR/XDR K. pneumoniae clinical isolates
[11] = broth microdilution in CAMHB, 20-24 h at 37°C
[12] = wells with no visible growth plated on MHA, 37°C, kills at least 99.9% of inoculum
[13] = K11 2 mg/mL in 25% FBS, 1 h at 37°C, then 30 min at 60°C, then MIC in CAMHB
[14] = K11 2 mg/mL in 50% FBS, 1 h at 37°C, then 30 min at 60°C, then MIC in CAMHB

In the case of CC[C@H](C)[C@H](NC(=O)[C@H](Cc1ccccc1)NC(=O)[C@H](CO)NC(=O)[C@H](CCCCN)NC(=O)[C@H](Cc1c[nH]c2ccccc12)NC(=O)[C@@H](N)CCCCN)C(=O)N[C@@H](CCCCN)C(=O)N[C@@H](CCCCN)C(=O)N[C@@H](CC(C)C)C(=O)N[C@H](C(=O)N[C@@H](CCCCN)C(=O)N[C@@H](CCCCN)C(=O)N[C@@H](Cc1ccccc1)C(=O)N[C@@H](CC(C)C)C(=O)N[C@@H](Cc1c[nH]cn1)C(=O)N[C@@H](CO)C(=O)N[C@@H](C)C(=O)N[C@@H](CCCCN)C(=O)N[C@@H](CCCCN)C(=O)N[C@@H](Cc1ccccc1)C(N)=O)[C@@H](C)O [K11] (H-KWKSFIKKLTKKFLHSAKKF-NH2), the hemolytic activity [1] is given as “no hemolytic activity”, the cytotoxicity [2] is given as “no cytotoxicity” and the MIC ([3]; KP-01) is given as 8 µg/mL (≈ 3.21 µM). It also gave an MBC ([3]; KP-01) of 8 µg/mL (≈ 3.21 µM), an MIC ([3]; KP-02) of 64 µg/mL (≈ 25.7 µM) and an MBC ([3]; KP-02) of 64 µg/mL (≈ 25.7 µM). For the same compound, the MIC ([3]; KP-03) was 16 µg/mL (≈ 6.42 µM), the MBC ([3]; KP-03) was 16 µg/mL (≈ 6.42 µM) and the MIC ([3]; KP-04) was 64 µg/mL (≈ 25.7 µM). It also gave an MBC ([3]; KP-04) of 128 µg/mL (≈ 51.3 µM), an MIC ([3]; KP-05) of 8 µg/mL (≈ 3.21 µM) and an MBC ([3]; KP-05) of 8 µg/mL (≈ 3.21 µM). The MIC ([3]; KP-06) was 64 µg/mL (≈ 25.7 µM), the MBC ([3]; KP-06) was 128 µg/mL (≈ 51.3 µM) and the MIC ([3]; KP-07) was 16 µg/mL (≈ 6.42 µM). The MBC ([3]; KP-07) was 16 µg/mL (≈ 6.42 µM), the MIC ([3]; KP-08) was 64 µg/mL (≈ 25.7 µM) and the MBC ([3]; KP-08) was 128 µg/mL (≈ 51.3 µM). For the same compound, the MIC ([3]; KP-09) was 64 µg/mL (≈ 25.7 µM), the MBC ([3]; KP-09) was 128 µg/mL (≈ 51.3 µM) and the MIC ([3]; KP-10) was 64 µg/mL (≈ 25.7 µM). The MBC ([3]; KP-10) was 128 µg/mL (≈ 51.3 µM), the MIC ([3]; KP-11) was 64 µg/mL (≈ 25.7 µM) and the MBC ([3]; KP-11) was 64 µg/mL (≈ 25.7 µM). For the same compound, the MIC ([3]; KP-12) was 64 µg/mL (≈ 25.7 µM), the MBC ([3]; KP-12) was 64 µg/mL (≈ 25.7 µM) and the MIC ([3]; KP-13) was 32 µg/mL (≈ 12.8 µM). The MBC ([3]; KP-13) was 32 µg/mL (≈ 12.8 µM), the MIC ([3]; KP-14) was 256 µg/mL (≈ 103 µM) and the MBC ([3]; KP-14) was 256 µg/mL (≈ 103 µM). The MIC ([3]; KP-15) was 512 µg/mL (≈ 205 µM), the MBC ([3]; KP-15) was 512 µg/mL (≈ 205 µM) and the MIC50 [3, 10] was 64 µg/mL (≈ 25.7 µM). For the same compound, the MIC90 [3, 10] was 256 µg/mL (≈ 103 µM), the “MIC, range over strains” value [4] was 2 to 4 µg/mL and the MIC (K. pneumoniae ATCC 70063 [5]; [11]) was 4 µg/mL (≈ 1.6 µM). The MBC (K. pneumoniae ATCC 70063 [5]; [12]) was 4 µg/mL (≈ 1.6 µM), the MIC [6, 11] was 2 µg/mL (≈ 0.802 µM) and the MBC [6, 12] was 2 µg/mL (≈ 0.802 µM). For the same compound, the “Antimicrobial activity MIC” value ([7]; Control, salt concentration 0) was 2 µg/mL, the “Antimicrobial activity MIC” value ([7]; K11 2 mg/mL in FeCl3 1 µM, 1 h at 37°C, then MIC in CAMHB) was 2 µg/mL and the “Antimicrobial activity MIC” value ([7]; K11 2 mg/mL in FeCl3 4 µM, 1 h at 37°C, then MIC in CAMHB) was 2 µg/mL. The “Antimicrobial activity MIC” value ([7]; K11 2 mg/mL in FeCl3 8 µM, 1 h at 37°C, then MIC in CAMHB) was 2 µg/mL, the “Antimicrobial activity MIC” value ([7]; K11 2 mg/mL in MgCl2 0.5 mM, 1 h at 37°C, then MIC in CAMHB) was 2 µg/mL and the “Antimicrobial activity MIC” value ([7]; K11 2 mg/mL in MgCl2 1 mM, 1 h at 37°C, then MIC in CAMHB) was 2 µg/mL. The “Antimicrobial activity MIC” value ([7]; K11 2 mg/mL in MgCl2 2 mM, 1 h at 37°C, then MIC in CAMHB) was 2 µg/mL, the “Antimicrobial activity MIC” value ([7]; K11 2 mg/mL in NaCl 100 mM, 1 h at 37°C, then MIC in CAMHB) was 2 µg/mL and the “Antimicrobial activity MIC” value ([7]; K11 2 mg/mL in NaCl 150mM, 1 h at 37°C, then MIC in CAMHB) was 4 µg/mL. The “Antimicrobial activity MIC” value ([7]; K11 2 mg/mL in NaCl 200 mM, 1 h at 37°C, then MIC in CAMHB) was 4 µg/mL, the “Antimicrobial activity MIC” value (K. pneumoniae ATCC 70063 [8]; 0% FBS (control)) was 4 µg/mL and the “Antimicrobial activity MIC” value (K. pneumoniae ATCC 70063 [8]; [13]) was 4 µg/mL. For the same compound, the “Antimicrobial activity MIC” value (K. pneumoniae ATCC 70063 [8]; [14]) was 4 µg/mL, the “Antimicrobial activity MIC” value ([9]; 0% FBS (control)) was 2 µg/mL and the “Antimicrobial activity MIC” value [9, 13] was 2 µg/mL. For the same compound, the “Antimicrobial activity MIC” value [9, 14] was 2 µg/mL.
